Experimental data published in PubChem BioAssay (NCI).
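The compound was tested at five concentrations on cells cultured in 96-well plates, with a 48-hour exposure period. TGI marks complete inhibition of growth.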

Tests used:
Experiment in all cases: growth of human tumour cells (NCI), 48 h
ACHN renal = test system: ACHN renal
DU-145 prostate = test system: DU-145 prostate
HOP-62 NSCLC = test system: HOP-62 NSCLC
HS 578T breast = test system: HS 578T breast
K-562 leukemia = test system: K-562 leukemia
KM12 colon = test system: KM12 colon
M14 melanoma = test system: M14 melanoma
NCI-H226 lung = test system: NCI-H226 lung
PC-3 prostate = test system: PC-3 prostate
RPMI-8226 leukemia = test system: RPMI-8226 leukemia
SF-268 CNS = test system: SF-268 CNS
SF-539 CNS = test system: SF-539 CNS
SK-OV-3 ovarian = test system: SK-OV-3 ovarian
SNB-19 CNS = test system: SNB-19 CNS
SR leukemia = test system: SR leukemia

SMILES | TGI (ACHN renal) | TGI (DU-145 prostate) | TGI (HOP-62 NSCLC) | TGI (HS 578T breast) | TGI (K-562 leukemia) | TGI (KM12 colon) | TGI (M14 melanoma) | TGI (NCI-H226 lung) | TGI (PC-3 prostate) | TGI (RPMI-8226 leukemia) | TGI (SF-268 CNS) | TGI (SF-539 CNS) | TGI (SK-OV-3 ovarian) | TGI (SNB-19 CNS) | TGI (SR leukemia)
O=[N+]([O-])C1=Cc2c(O)ccc(O)c2C2OC=CC12 (stereo not given) | 29.1 µM | > 54.6 µM | 35.2 µM | 61.6 µM | > 100 µM | 32.5 µM | 34.5 µM | > 73.8 µM | 31 µM | > 100 µM | 35.5 µM | 47.5 µM | > 100 µM | 52.2 µM | > 74.5 µM
N#C/C=C(/NC(=O)Nc1ccccc1)N1CCCC1 | > 57.3 µM | > 85.6 µM | > 35.8 µM | > 100 µM | > 100 µM | > 100 µM | > 100 µM | > 65.9 µM | > 54.5 µM | > 100 µM | > 46.4 µM | > 65.7 µM | > 100 µM | > 45.6 µM | > 100 µM
CCO/C(O)=c1/s/c(=C2/SC(=S)N(c3ccc(C)cc3)C2=O)n(-c2ccccc2)c1=N | > 100 µM | > 100 µM | 81.9 µM | 66.8 µM | > 100 µM | > 100 µM | > 100 µM | > 76.9 µM | > 100 µM | > 100 µM | > 95.8 µM | 39 µM | > 76 µM | > 100 µM | > 100 µM
Fc1ccc(F)c(C=NC23CC4CC(CC(C4)C2)C3)c1 | > 10 µM | > 10 µM | > 10 µM | > 10 µM | > 10 µM | > 10 µM | > 10 µM | > 10 µM | > 10 µM | > 10 µM | > 10 µM | > 10 µM | > 10 µM | > 10 µM | > 10 µM
C/C(=N/NC(=S)N1CCCCCC1)c1cccc(/C(C)=N\NC(=S)N2CCCCCC2)n1 | 2.87 µM | 6.04 µM | 3.82 µM | 8.82 µM | 6.58 µM | 3.16 µM | 3.53 µM | 3.31 µM | 5.2 µM | 5.33 µM | 9.46 µM | 3.15 µM | 4.1 µM | 9.43 µM | 5.84 µM
CC(=O)N1N=C(c2ccccc2)NC(=O)C1c1cc(C)c(O)c(C)c1 (stereo not given) | 44 µM | 57.5 µM | 35.3 µM | > 100 µM | > 100 µM | > 100 µM | > 100 µM | 49.7 µM | 79.7 µM | > 100 µM | 34.3 µM | 40.3 µM | 34.3 µM | 50.9 µM | > 100 µM
C[C@]12CCC(=O)C=C1CC[C@@H]1[C@@H]2CC[C@]2(C)C(=O)/C(=C/c3ccc([N+](=O)[O-])cc3)C[C@@H]12 | 19.9 µM | > 100 µM | > 100 µM | > 100 µM | > 100 µM | > 100 µM | > 100 µM | > 100 µM | > 100 µM | > 100 µM | > 100 µM | > 100 µM | > 100 µM | > 100 µM | > 100 µM
CCCCCCCCCCCCCOCCOCCOCCCCC(O)CCCCCCCCCC1=C[C@H](C)OC1=O (stereo not given in full) | > 100 µM | 66.3 µM | > 100 µM | 47.6 µM | > 100 µM | > 100 µM | > 100 µM | 38 µM | 71.7 µM | 35.9 µM | 82.2 µM | 45.3 µM | > 100 µM | 43.7 µM | 34.2 µM
